Measured values taken from patent publication US8318758B2, “5-fluoro-2-oxopyrimidine-1(2H)-carboxylate derivatives” (Dow AgroSciences, LLC, priority 2009, dated 2012).
Like-named read-outs stand apart in the source and are kept apart here.

Key:
[1] = system: Mycosphaerella graminicola; anamorph: Septoria tritici; Bayer code SEPTTR; test: Fungicidal activity: leaf blotch of wheat, one-day protectant and three-day curative tests on wheat plants; format: in vivo, Septoria tritici on wheat plants (variety Yuma); conditions: Zymoseptoria tritici
Procedure: Evaluation of Fungicidal Activity: Leaf Blotch of Wheat (Mycosphaerella graminicola; anamorph: Septoria tritici; Bayer code […]) Wheat plants (variety Yuma) were grown from seed in a greenhouse in 50% mineral soil/50% soil-less Metro mix until the first leaf was fully emerged, with 7-10 seedlings per pot. These plants were inoculated with an aqueous spore suspension of Septoria tritici either prior to or after fungicide treatments. After inoculation the plants were kept in 100% relative humidity (one day in a dark dew chamber followed by two to three days in a lighted dew chamber) to permit spores to germinate and infect the leaf. The plants were then transferred to a greenhouse for disease to develop. The following table presents the activity of typical compounds of the present disclosure when evaluated in these experiments. The effectiveness of the test compounds in controlling disease was determined by assessing the severity of disease on treated plants, then converting the severity to percent control based on the level of disease on untreated, inoculated plants.

[2] = 24 h, read-out: SEPTTR 100 PPM 1DP (% disease control rating)
[3] = 72 h, read-out: SEPTTR 100 PPM 3DC (% disease control rating)
[4] = 24 h, One-Day Protectant (1DP), 100 ppm, wheat plants, percent control relative to untreated, inoculated plants, read-out: SEPTTR 100 PPM 1DP (% disease control rating)
[5] = 72 h, Three-Day Curative (3DC), 100 ppm, wheat plants, percent control relative to untreated, inoculated plants, read-out: SEPTTR 100 PPM 3DC (% disease control rating)

Row | SMILES | melting point | pest or weed control at 100 ppm [1, 2] | pest or weed control at 100 ppm [1, 3] | pest or weed control at 100 ppm [1, 4] | pest or weed control at 100 ppm [1, 5]
1 | CC(C)OC(=O)n1cc(F)c(N)nc1=O [Compound 4, isopropyl 4-amino-5-fluoro-2-oxopyrimidine-1(2H)-carboxylate] | 217 to 219 °C | 76 to 100% | 76 to 100% |  | 
2 | Nc1nc(=O)n(C(=O)OC2CCCC2)cc1F [Compound 20] | 139.8 to 140.6 °C |  |  | 76 to 100% | 76 to 100%
3 | Nc1nc(=O)n(C(=S)Oc2ccccc2)cc1F [Compound 21, O-phenyl 4-amino-5-fluoro-2-oxopyrimidine-1(2H)-carbothioate] | 113 to 116 °C |  |  | 76 to 100% | 76 to 100%
4 | Nc1nc(=O)n(C(=O)OCc2ccccc2)cc1F [Compound 2, benzyl 4-amino-5-fluoro-2-oxopyrimidine-1(2H)-carboxylate] | 212 to 215 °C | 76 to 100% | 76 to 100% |  | 
5 | COCCOC(=O)n1cc(F)c(N)nc1=O [Compound 15] | 94.2 to 96.3 °C |  |  | 76 to 100% | 76 to 100%
6 | Nc1nc(=O)n(C(=O)OCCCCl)cc1F [Compound 14] | 145.1 to 146.3 °C |  |  | 76 to 100% | 76 to 100%
7 | CCOC(=O)n1cc(F)c(N)nc1=O [Compound 3, ethyl 4-amino-5-fluoro-2-oxopyrimidine-1(2H)-carboxylate] | 190 to 193 °C | 76 to 100% | 76 to 100% |  | 
8 | Nc1nc(=O)n(C(=O)Oc2ccccc2)cc1F [Compound 5, phenyl 4-amino-5-fluoro-2-oxopyrimidine-1(2H)-carboxylate] | 175 to 180 °C | 76 to 100% | 76 to 100% |  | 
9 | Nc1nc(=O)n(C(=O)OCC(Cl)(Cl)Cl)cc1F [Compound 16] | 219.3 to 221.1 °C |  |  | 76 to 100% | 76 to 100%
10 | CCCCCOC(=O)n1cc(F)c(N)nc1=O [Compound 19] | 125.9 to 128.2 °C |  |  | 76 to 100% | 76 to 100%
11 | Nc1nc(=O)n(C(=O)Oc2ccc3ccccc3c2)cc1F [Compound 18] | 165.8 to 168.1 °C |  |  | 76 to 100% | 76 to 100%
12 | CN(C)/C=N/c1nc(=O)n(C(=O)OCC(C)(C)C)cc1F [Compound 1, 4-(dimethylamino-methyleneamino)-5-fluoro-2-oxo-2H-pyrimidine-1-carboxylic acid 2,2-dimethyl-propyl ester] | 162 to 164 °C | 76 to 100% | 76 to 100% |  | 
13 | Nc1nc(=O)n(C(=O)OCCOCc2ccccc2)cc1F [Compound 12] | 142.8 to 145.1 °C |  |  | 76 to 100% | 76 to 100%
14 | Nc1nc(=O)n(C(=O)Oc2ccccc2Cl)cc1F [Compound 8] | 222.5 to 224.6 °C |  |  | 76 to 100% | 76 to 100%
15 | Nc1nc(=O)n(C(=O)OCc2ccccc2Cl)cc1F [Compound 11] | 145.8 to 146.8 °C |  |  | 76 to 100% | 76 to 100%
16 | COC(=O)n1cc(F)c(N)nc1=O [Compound 13] | 240 to 243 °C |  |  | 76 to 100% | 76 to 100%
17 | C=CCOC(=O)n1cc(F)c(N)nc1=O [Compound 17] | 258 to 260.4 °C |  |  | 76 to 100% | 76 to 100%

Further lines, with some results ahead:

Row | melting point | SMILES | pest or weed control at 100 ppm [1, 2] | pest or weed control at 100 ppm [1, 3] | pest or weed control at 100 ppm [1, 4] | pest or weed control at 100 ppm [1, 5]
18 | 156.8 to 158.2 °C | Nc1nc(=O)n(C(=O)Oc2ccc(F)cc2)cc1F [Compound 9] |  |  | 76 to 100% | 76 to 100%
19 | 103.5 to 104.6 °C | CN(C)/C=N/c1nc(=O)n(C(=O)OC2CCCC2)cc1F [Compound 26] |  |  |  | 
20 | 143.2 to 146.3 °C | Nc1nc(=O)n(C(=O)Oc2ccc(Cl)cc2)cc1F [Compound 7] |  |  | 76 to 100% | 76 to 100%
21 | 235 to 237 °C | Cc1ccc(OC(=O)n2cc(F)c(N)nc2=O)cc1 [Compound 10] |  |  | 76 to 100% | 76 to 100%
22 | 179 to 181.2 °C | Cc1ccc(OC(=O)n2cc(F)c(/N=C/N(C)C)nc2=O)cc1 [Compound 24] |  |  |  | 
23 | 172.4 to 173.6 °C | COc1ccc(OC(=O)n2cc(F)c(N)nc2=O)cc1 [Compound 6] |  |  | 76 to 100% | 76 to 100%
24 | 123.2 to 124.3 °C | CN(C)/C=N/c1nc(=O)n(C(=O)OCc2ccccc2)cc1F [Compound 23] |  |  |  | 
